Measurements taken from patent US20040044043A1, “Thiazolidinedione derivative and its use as antidiabetic” (priority 2000, published 2004).

What was measured:
[1] = Solid state stability of the drug substance (storage, HPLC assay); format: physicochemical; settings: 1 month
Experimental: The solid state stability of the drug substance was determined by storing approximately 1.0 g of the material in a glass bottle at a) 40° C./75% Relative Humidity (RH), open exposure, for 1 month and b) at 50° C., closed, for 1 month. The material was assayed by HPLC for final content and degradation products in both cases.

[2] = Solubility in water (visual, confirmed by HPLC assay of a saturated solution); format: physicochemical; settings: thermodynamic from solid
Experimental: The visual solubility was confirmed by an HPLC assay of a saturated solution. Solubility: >100 mg/ml.

SMILES: CCS(=O)(=O)O.CN(CCOc1ccc(CC2SC(=O)NC2=O)cc1)c1ccccn1 (centres unmarked) [Ethanesulfonate, 5-[4-[2-(N-methyl-N-(2-pyridyl)amino)ethoxy]benzyl]thiazolidine-2,4-dione ethanesulfonate]
- Degradation (HPLC degradation products) ([1]; 40° C./75% RH, open exposure): No significant degradation observed
- HPLC assay for final content ([1]; 40° C./75% RH, open exposure): 99 % initial
- Degradation (HPLC degradation products) ([1]; 50° C., closed): No significant degradation observed
- HPLC assay for final content ([1]; 50° C., closed): 100 % initial
- solubility [2]: > 100 mg/mL
